Key:
VGE62 = test: MTT cell metabolic activity assay, VGE62; format: cell-based, human; details: VGE62, 48 h, 0.391-100 μM; effect at higher micromolar concentrations
Experimental: Cells were harvested and seeded in 96-flat well plates (Corning) at a density of 5 x 10^4 cells/mL overnight. Media was removed and 100 μL media with GW6471 or GW9662 at indicated concentrations was added to each well. Cell viability and toxicity were measured at 48 h. Cells were incubated with 50 μL of a 2 mg/mL solution of (3-(4,5-dimethyl-thiazole-2-yl)-2,5-[…] tetrazolium (MTT, Sigma-Aldrich) in PBS for 4 h and then exposed to 100 μL dimethyl sulfoxide (DMSO; Sigma-Aldrich). Cell viability was measured by absorption at 570 nm in a microplate spectrophotometer (Spectromax 250 plate reader). Results are shown as relative cell viability.

[1] = test system: angiopoietin-like 4 (Angptl4); test: Angptl4 immunohistochemistry of treated tumors; format: in vivo, BALB/c mice; details: GW6471- versus vehicle-treated tumors
Experimental: Tissues were fixed with 4% paraformaldehyde for 48–72 h and embedded in paraffin. 5 μm sections were cut by microtome (Thermo Fisher Scientific) and placed on Slide SuperFrost Plus White 1 mm (Thermo Fisher Scientific). Slides were deparaffinised as previously explained for hematoxylin and eosin staining. Antigen retrieval was performed with 10 mM citrate, pH6, at high pressure in a pressure cooker for 15 min and 5 min slow release. Sections were rinsed twice with TBST buffer (Tris-Buffer Saline with Tween, 20 mM Tris, 500 mM NaCl, and 0.05% Tween 20) for 5 min under agitation. Quench tissue peroxidase H2O2 was performed for 10 min at room temperature with 3% H2O2 in distilled H2O. The Vectastain® ABC kit, peroxidase (Rabbit IgG) (Vector Laboratories) was used for the following steps. Non-specific binding was performed with 1.5% Normal goat serum in PBS for 20 min at room temperature. Primary antibody Angptl4 (1:50) (409800, Invitrogen), was diluted in PBS/1.5% goat serum and incubated 1 h at room temperature. The secondary biotinylated anti-Rabbit IgG (1:200) (Vector Laboratories), was diluted in PBS and incubated for 30 min at room temperature. Vectastain ABC reagent (Vector Laboratories) was used as per manufacturer's instructions, mixing Reagent A with Reagent B (1:1) and incubating at room temperature 30 min prior use. […]

PPARα = target: T1, PPARα (Homo sapiens, UniProt Q07869); test: HG5LN reporter cell assay, PPARα-mediated transcription; format: cell-based; set-up: expressed in transfected cells; host or cells: HG5LN (HeLa-derived, GAL4RE-luciferase)
T1 sequence (Q07869 239-466 limits assumed): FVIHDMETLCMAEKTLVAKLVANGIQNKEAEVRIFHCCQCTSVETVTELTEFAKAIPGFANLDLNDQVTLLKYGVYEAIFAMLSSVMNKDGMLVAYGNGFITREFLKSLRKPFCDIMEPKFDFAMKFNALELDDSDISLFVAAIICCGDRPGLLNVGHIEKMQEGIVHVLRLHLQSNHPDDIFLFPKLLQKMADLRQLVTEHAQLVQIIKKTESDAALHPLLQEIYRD
Text: Nuclear receptors, including PPARα and γ, are ligand-inducible transcription factors that form heterodimers with retinoid X receptors and bind to specific DNA sites located in the enhancer/promoter region of target genes, releasing co-repressors and/or recruiting co-activators ([Wang, 2010]). We therefore assessed the functional consequences of the ligands on PPARα and γ-mediated transcriptional activation in reporter cell lines. These cell lines were generated as previously reported by a two-step transfection procedure ([Seimandi et al., 2005]). First, a stable cell line, HG5LN, expressing the reporter gene (GAL4RE-luciferase) was developed from the HeLa cell line. These cells were then transfected with a plasmid expressing the C-terminal ligand-binding domain of PPARα or γ fused to GAL4 DNA-binding domain. The parental HG5LN cells were used as a control to test non-specific modulation of luciferase expression by the small molecules investigated (Figure S4A). The HG5LN PPAR reporter cells therefore allow comparison of the functional activity at, and selectivity of different ligands for, PPARα and γ. […] As expected ([Abu Aboud et al., 2015]), GW6471 potently antagonized PPARα (Figure 4E and Table 1).
A transfected […] cell line HG5LN was used ([Balaguer et al., 2001]). These cells were cultured in Dubecco's modified Eagle's medium (DMEM-F12 Thermo Fisher Scientific) with phenol red and supplemented with 5% foetal calf serum, incubated at 37°C in a 5% CO2/95% air-humidified atmosphere. Luciferase assays were performed in DMEM-F12 (Thermo Fisher Scientific) without phenol red and supplemented with 5% dextran-coated charcoal-stripped FCS (test culture medium), puromycin (Thermo Fisher Scientific) 0.5 μg/mL and geneticin (Thermo Fisher Scientific) 1 mg/mL. Cells were seeded at a density of 5 x 10^4 cells/well and incubated for 8 h at 37°C in a 96-well plate white opaque tissue culture plates (Becton-Dickinson). Tested compounds were added in serial dilutions and incubated for 16 h at 37°C. After incubation, the medium containing the effectors was carefully removed and replaced by culture medium containing 3 x 10^−4 mol/L luciferin (Sigma Chemicals). After 5 min incubation at room temperature, the 96-well plate was then read with a Microbeta Wallac luminometer and the luminescence was measured in the living cells for 2 s. All experiments were performed in quadruplicate.

In the case of `CCC(=O)NC[C@H](Cc1ccc(OCCc2nc(-c3ccccc3)oc2C)cc1)N/C(C)=C\C(=O)c1ccc(C(F)(F)F)cc1` [GW6471], the “Cell viability (MTT)” value (VGE62) is reported as “lowered viability”, the “Angptl4 staining in tumors” value [1] is reported as “decreased staining of Angptl4” and the “Functionality, Type” value (PPARα) is reported as “antagonist”. The IC50 (PPARα; inhibition of agonism by 10 nM GW7647, 16 h incubation, mean of 3 experiments ± SEM) was 254 ± 96 nM.

Source: PMC8692993, “PPARα and PPARγ activation is associated with pleural mesothelioma invasion but therapeutic inhibition is ineffective” (iScience, 2021)
